Measured values from US7521442B2, “Cyclopropyl fused indolobenzazepine HCV NS5B inhibitors” (Bristol-Myers Squibb Company, priority 2006, dated 2009).
Read-outs that look alike come from different tables or passages of the source.

Key:
[1] = target: T1, HCV NS5B RdRp genotype 1b (Hepatitis C virus genotype 1b, UniProt Q9WMX2); assay: Modified HCV NS5B RdRp enzyme assay (preincubation protocol); format: biochemical
T1 construct: The protein was expressed with an 18 amino acid C-terminal truncation to enhance the solubility; made in house; host or cells: E. coli BL21(DE3), pET21a
Experimental: HCV NS5B RdRp cloning, expression, and purification. The cDNA encoding the NS5B protein of HCV, genotype 1b, was cloned into the pET21a expression vector. The protein was expressed with an 18 amino acid C-terminal truncation to enhance the solubility. The E. coli competent cell line BL21(DE3) was used for expression of the protein. Cultures were grown at 37° C. for ˜4 hours until the cultures reached an optical density of 2.0 at 600 nm. The cultures were cooled to 20° C. and induced with 1 mM IPTG. Fresh ampicillin was added to a final concentration of 50 μg/ml and the cells were grown overnight at 20° C.
Cell pellets (3 L) were lysed for purification to yield 15-24 mgs of purified NS5B. The lysis buffer consisted of 20 mM Tris-HCl, pH 7.4, 500 mM NaCl, 0.5% triton X-100, 1 mM DTT, 1 mM EDTA, 20% glycerol, 0.5 mg/ml lysozyme, 10 mM MgCl2, 15 μg/ml deoxyribonuclease I, and Complete TM protease inhibitor tablets (Roche). After addition of the lysis buffer, frozen cell pellets were resuspended using a tissue homogenizer. To reduce the viscosity of the sample, aliquots of the lysate were sonicated on ice using a microtip attached to a Branson sonicator. The sonicated lysate was centrifuged at 100,000×g for 1 hr at 4° C. and filtered through a 0.2 μm filter unit (Corning).
The protein was purified using three sequential chromatography steps: Heparin sepharose CL-6B, polyU sepharose 4B, and Hitrap SP sepharose (Pharmacia). The chromatography buffers were identical to the lysis buffer but contained no lysozyme, deoxyribonuclease I, MgCl2 or protease inhibitor and the NaCl concentration of the buffer was adjusted according to the requirements for charging the protein onto the column. Each column was eluted with a NaCl gradient which varied in length from 5-50 column volumes depending on the column type. After the final chromatography step, the resulting purity of the enzyme is >90% based on SDS-PAGE analysis. The enzyme was aliquoted and stored at −80° C.
Standard HCV NS5B RdRp enzyme assay. HCV RdRp genotype 1b assays were run in a final volume of 60 μl in 96 well plates (Costar 3912). The assay buffer is composed of 20 mM Hepes, pH 7.5, 2.5 mM KCl, 2.5 mM MgCl2, 1 mM DTT, 1.6 U RNAse inhibitor (Promega N2515), 0.1 mg/ml BSA (Promega R3961), and 2% glycerol. All compounds were serially diluted (3-fold) in DMSO and diluted further in water such that the final concentration of DMSO in the assay was 2%. HCV RdRp genotype 1b enzyme was used at a final concentration of 28 nM. A polyA template was used at 6 nM, and a biotinylated oligo-dT12 primer was used at 180 nM final concentration. Template was obtained commercially (Amersham 27-4110). Biotinylated primer was prepared by Sigma Genosys. 3H-UTP was used at 0.6 μCi (0.29 μM total UTP). Reactions were initiated by the addition of enzyme, incubated at 30° C. for 60 min, and stopped by adding 25 μl of 50 mM EDTA containing SPA beads (4 μg/μl, Amersham RPNQ 0007). Plates were read on a Packard Top Count NXT after >1 hr incubation at room temperature.
Modified HCV NS5B RdRp enzyme assay. A modified enzyme assay was performed essentially as described for the standard enzyme assay except for the following: The biotinylated oligo dT12 primer was precaptured on streptavidin-coated SPA beads by mixing primer and beads in assay buffer and incubating at room temperature for one hour. Unbound primer was removed after centrifugation. The primer-bound beads were resuspended in 20 mM Hepes buffer, pH 7.5 and used in the assay at final concentrations of 20 nM primer and 0.67 μg/μl beads. Order of addition in the assay: enzyme (14 nM) was added to diluted compound followed by the addition of a mixture of template (0.2 nM), 3H-UTP (0.6 μCi, 0.29 μM), and primer-bound beads, to initiate the reaction; concentrations given are final. Reactions were allowed to proceed for 4 hours at 30° C.
IC50 values for compounds were determined using seven different [I]. […]

HCV replicon cells = assay: HCV replicon FRET assay; format: cell-based
Source text: FRET Assay Preparation. To perform the HCV FRET screening assay, 96-well cell culture plates were used. The FRET peptide (Anaspec, Inc.) (Taliani et al., Anal. Biochem. 1996, 240, 60-67) contains a fluorescence donor, EDANS, near one end of the peptide and an acceptor, DABCYL, near the other end. The fluorescence of the peptide is quenched by […] resonance energy transfer (RET) between the donor and the acceptor, but as the NS3 protease cleaves the peptide the products are released from RET quenching and the fluorescence of the donor becomes apparent. The assay reagent was made as follows: 5× cell Luciferase cell culture lysis reagent from Promega (#E153A) diluted to 1× with dH2O, NaCl added to 150 mM final, the FRET peptide diluted to 20 uM final from a 2 mM stock.
To prepare plates, HCV replicon cells, with or without a Renilla luciferase reporter gene, were trypsinized and placed into each well of a 96-well plate with titrated test compounds added in columns 3 through 12; columns 1 and 2 contained a control compound (HCV protease inhibitor), and the bottom row contained cells without compound. The plates were then placed in a CO2 incubator at 37° C.
Assays. Subsequent to addition of the test compounds described above (FRET Assay Preparation), at various times the plate was removed and Alamar blue solution (Trek Diagnostics, #00-100) was added per well as a measure of cellular toxicity. After reading in a Cytoflour 4000 instrument (PE Biosystems), plates were rinsed with PBS and then used for FRET assay by the addition of 30 ul of the FRET peptide assay reagent described above (FRET Assay Preparation) per well. The plate was then placed into the Cytoflour 4000 instrument which had been set to 340 excite/490 emission, automatic mode for 20 cycles and the plate read in a kinetic mode. Typically, the signal to noise using an endpoint analysis after the reads was at least three-fold. Alternatively, after Alamar blue reading, plates were rinsed with PBS, 50 ul of DMEM (high glucose) without phenol red was added and plates were then used for luciferase assay using the Promega Dual-Glo Luciferase Assay System.
Compound analysis was determined by quantification of the relative HCV replicon inhibition and the relative cytotoxicity values. To calculate cytoxicity values, the average Alamar Blue fluorescence signals from the control wells were set as 100% non-toxic. The individual signals in each of the compound test wells were then divided by the average control signal and multiplied by 100% to determine […]. To calculate the HCV replicon inhibition values, an average background value was obtained from the two wells containing the highest amount of HCV protease inhibitor at the end of the assay period. These numbers were similar to those obtained from naive Huh-7 cells.
The background numbers were then subtracted from the average signal obtained from the control wells and this number was used as 100% activity. The individual signals in each of the compound test wells were then divided by the averaged control values after background subtraction and multiplied by 100% to determine percent activity. EC50 values for a protease inhibitor titration were calculated as the concentration which caused a 50% reduction in FRET or luciferase activity. The two numbers generated for the compound plate, percent cytoxicity and percent activity were used to determine compounds of interest for further analysis.

T1 sequence (Q9WMX2 2420-2992): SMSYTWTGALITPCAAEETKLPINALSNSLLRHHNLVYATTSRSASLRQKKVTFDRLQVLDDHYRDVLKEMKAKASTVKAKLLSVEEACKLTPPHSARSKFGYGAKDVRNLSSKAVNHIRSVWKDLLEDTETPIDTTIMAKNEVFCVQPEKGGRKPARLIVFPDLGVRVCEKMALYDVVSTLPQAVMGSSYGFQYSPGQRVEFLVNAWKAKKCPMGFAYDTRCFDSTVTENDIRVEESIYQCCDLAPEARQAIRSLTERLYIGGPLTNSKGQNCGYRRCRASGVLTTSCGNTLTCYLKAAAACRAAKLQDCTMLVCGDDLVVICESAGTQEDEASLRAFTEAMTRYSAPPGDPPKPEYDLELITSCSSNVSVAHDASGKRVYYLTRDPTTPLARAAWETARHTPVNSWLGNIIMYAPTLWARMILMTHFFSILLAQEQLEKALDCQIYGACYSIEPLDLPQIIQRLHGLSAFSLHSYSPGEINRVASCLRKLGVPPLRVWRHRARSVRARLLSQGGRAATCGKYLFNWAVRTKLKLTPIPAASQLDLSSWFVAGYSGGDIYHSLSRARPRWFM

SMILES	IC50 [1] [nM]	EC50 (HCV replicon cells; Hepatitis C virus) [nM]	EC50 (HCV replicon cells; FRET assay) [nM]	EC50 (HCV replicon cells; Hepatitis C virus, FRET assay, read-out: EC50) [nM]
COc1ccc2c(c1)C1CC1(C(=O)N1CC(O)(c3ccc(F)cc3)C1)Cn1c-2c(C2CCCCC2)c2ccc(C(=O)NS(=O)(=O)N(C)C)cc21 (stereo not shown)	1 to 500	1 to 500	–	–
COc1ccc2c(c1)C1CC1(C(=O)N1CC(O)(C(C)C)C1)Cn1c-2c(C2CCCCC2)c2ccc(C(=O)NS(=O)(=O)N(C)C)cc21 (stereo not shown)	1 to 500	1 to 500	–	–
COc1ccc2c(c1)C1CC1(C(=O)N1CC(O)(C(F)(F)F)C1)Cn1c-2c(C2CCCCC2)c2ccc(C(=O)NS(=O)(=O)N(C)C)cc21 (stereo not shown) [drawing 25]	1 to 500	–	1 to 500	–
COc1ccc2c(c1)C1CC1(C(=O)N1CC(O)(C(F)(F)F)C1)Cn1c-2c(C2CCCCC2)c2ccc(C(=O)NS(=O)(=O)N(C)C)cc21 (stereo not shown) [drawing 23]	1 to 500	1 to 500	–	–
COc1ccc2c(c1)C1CC1(C(=O)N1CC(O)(C3CC3)C1)Cn1c-2c(C2CCCCC2)c2ccc(C(=O)NS(=O)(=O)N(C)C)cc21 (stereo not shown) [drawing 21]	1 to 500	1 to 500	–	–
COc1ccc2c(c1)C1CC1(C(=O)N1CC(C)(O)C1)Cn1c-2c(C2CCCCC2)c2ccc(C(=O)NS(=O)(=O)N(C)C)cc21 (stereo not shown)	< 20	1 to 500	–	–
COc1ccc2c(c1)C1CC1(C(=O)N1CC(O)C1)Cn1c-2c(C2CCCCC2)c2ccc(C(=O)NS(=O)(=O)N(C)C)cc21 (stereo not shown) [drawing 17]	1 to 500	1 to 500	–	–
COc1ccc2c(c1)C1CC1(C(=O)N1CC(O)C1)Cn1c-2c(C2CCCCC2)c2ccc(C(=O)NS(=O)(=O)C3CC3)cc21 (stereo not shown) [drawing 27]	1 to 500	–	–	–
COc1ccc2c(c1)C1CC1(C(=O)N1CC(O)C1)Cn1c-2c(C2CCCCC2)c2ccc(C(=O)NS(=O)(=O)N(C)C)cc21 (stereo not shown) [drawing 28]	1 to 500	–	–	–
COc1ccc2c(c1)C1CC1(C(=O)N1CC(O)C1)Cn1c-2c(C2CCCCC2)c2ccc(C(=O)NS(=O)(=O)C3CC3)cc21 (stereo not shown) [drawing 16]	1 to 500	–	–	1 to 500
COc1ccc2c(c1)C1CC1(C(=O)N1CC(O)(c3ccccc3)C1)Cn1c-2c(C2CCCCC2)c2ccc(C(=O)NS(=O)(=O)N(C)C)cc21 (stereo not shown)	1 to 500	1 to 500	–	–
COc1ccc2c(c1)C1CC1(C(=O)N1CC(O)(C3CC3)C1)Cn1c-2c(C2CCCCC2)c2ccc(C(=O)NS(=O)(=O)N(C)C)cc21 (stereo not shown) [drawing 24]	1 to 500	–	1 to 500	–
